The target of this assay is S. aureus GyrB ATPase (Staphylococcus aureus, UniProt P0A0K8). The experiment in a line: S. aureus GyrB ATPase inhibition (ammonium molybdate/malachite green phosphate detection). The class given is biochemical. The following applies: compound concentration of 1 μM (unless otherwise noted). The procedure: E. coli GyrB ATPase Inhibition Activity: Compounds can be tested for inhibition of E. coli GyrB ATPase activity using an ammonium molybdate/malachite green-based phosphate detection assay (Lanzetta, P. A., L. J. Alvarez, P. S. Reinach, and O. A. Candia, 1979, 100: 95-97). Assays can be performed in multiwell plates in 30 μl reactions containing: 50 mM Hepes buffer pH 7.5, 75 mM ammonium acetate, 8.0 mM magnesium chloride, 0.5 mM ethylenediaminetetraacetic acid, 5% glycerol, 1 mM 1,4-Dithio-DL-threitol, 200 nM bovine serum albumin, 1.6 μg/ml sheared salmon sperm DNA, 400 pM E. coli GyrA, 400 pM E. coli GyrB, 250 μM ATP, and compound in dimethylsulfoxide. Reactions can be quenched with 30 μl of ammonium molybdate/malachite green detection reagent containing 1.2 mM malachite green hydrochloride, 8.5 mM ammonium molybdate tetrahydrate, and 1 M hydrochloric acid. Plates can be read in an absorbance plate reader at 650 nm and percent inhibition values are calculated using dimethylsulfoxide (2%)-containing reactions as 0% inhibition and EDTA-containing (2.4 μM) reactions as 100% inhibition controls. An IC50 measurement of compound potency for each compound can be determined from reactions performed in the presence of 10 different compound concentrations. E. coli Topoisomerase IV ATPase Inhibition Activity: Compounds can be tested for inhibition of E. coli topoisomerase IV ATPase activity as described above for E. coli GyrB except the 30 μl reactions contained the following: 20 mM TRIS buffer pH 8, 50 mM ammonium acetate, 8 mM magnesium chloride, 5% glycerol, 5 mM 1,4-Dithio-DL-threitol, 0.005% Brij-35, 5 μg/ml sheared salmon sperm DNA, 500 pM E. coli ParC, 500 pM E. coli ParE, 160 μM ATP, and compound in dimethylsulfoxide. An IC50 measurement of compound potency for each compound can be determined from reactions performed in the presence of 10 different compound concentrations. S. aureus GyrB ATPase Inhibition Activity: Compounds may be tested for inhibition of S. aureus GyrB ATPase activity using an ammonium molybdate/malachite green-based phosphate detection assay (Lanzetta, P. A., L. J. Alvarez, P. S. Reinach, and O. A. Candia, 1979, 100: 95-97). Assays can be performed in multiwell plates in 30 μl reactions containing: 50 mM Hepes buffer pH 7.5, 75 mM ammonium acetate, 8.0 mM magnesium chloride, 0.5 mM ethylenediaminetetraacetic acid, 5% glycerol, 1.0 mM 1,4-Dithio-DL-threitol, 200 nM bovine serum albumin, 1.0 μg/ml sheared salmon sperm DNA, 250 pM E. coli GyrA, 250 pM S. aureus GyrB, 250 μM ATP, and compound in dimethylsulfoxide. Reactions can be quenched with 30 μl of ammonium molybdate/malachite green detection reagent containing 1.2 mM malachite green hydrochloride, 8.5 mM ammonium molybdate tetrahydrate, and 1 M hydrochloric acid. Plates can be read in an absorbance plate reader at 650 nm and percent inhibition values can be calculated using dimethylsulfoxide (2%)-containing reactions as 0% inhibition and EDTA-containing (2.4 μM) reactions as 100% inhibition controls. An IC50 measurement of compound potency for each compound can be determined from reactions performed in the presence of 10 different compound concentrations.
Chain of S. aureus GyrB ATPase (P0AES4 whole entry): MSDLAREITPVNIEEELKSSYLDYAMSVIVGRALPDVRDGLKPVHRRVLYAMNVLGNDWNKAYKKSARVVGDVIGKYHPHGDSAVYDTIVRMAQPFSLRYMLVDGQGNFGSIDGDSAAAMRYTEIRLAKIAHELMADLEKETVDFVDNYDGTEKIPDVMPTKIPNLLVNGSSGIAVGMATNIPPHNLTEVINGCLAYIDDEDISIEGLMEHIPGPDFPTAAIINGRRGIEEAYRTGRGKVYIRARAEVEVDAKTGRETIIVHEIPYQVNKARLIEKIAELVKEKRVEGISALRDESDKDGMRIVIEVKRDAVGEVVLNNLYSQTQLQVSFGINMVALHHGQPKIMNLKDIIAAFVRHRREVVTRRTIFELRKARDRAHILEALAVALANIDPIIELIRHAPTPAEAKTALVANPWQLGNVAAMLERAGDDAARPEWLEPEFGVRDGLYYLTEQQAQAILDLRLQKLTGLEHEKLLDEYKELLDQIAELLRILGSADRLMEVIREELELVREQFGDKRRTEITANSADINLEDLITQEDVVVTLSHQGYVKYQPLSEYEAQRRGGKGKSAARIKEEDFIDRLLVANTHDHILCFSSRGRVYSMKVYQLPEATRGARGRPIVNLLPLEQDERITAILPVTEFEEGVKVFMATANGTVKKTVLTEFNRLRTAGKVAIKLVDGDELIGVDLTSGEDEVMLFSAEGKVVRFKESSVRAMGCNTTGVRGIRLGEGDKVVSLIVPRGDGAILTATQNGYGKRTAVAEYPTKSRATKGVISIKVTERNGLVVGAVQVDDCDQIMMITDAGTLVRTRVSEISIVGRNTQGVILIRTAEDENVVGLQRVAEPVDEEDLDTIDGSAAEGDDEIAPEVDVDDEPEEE
Chain of S. aureus GyrB ATPase (P0A0K8 whole entry): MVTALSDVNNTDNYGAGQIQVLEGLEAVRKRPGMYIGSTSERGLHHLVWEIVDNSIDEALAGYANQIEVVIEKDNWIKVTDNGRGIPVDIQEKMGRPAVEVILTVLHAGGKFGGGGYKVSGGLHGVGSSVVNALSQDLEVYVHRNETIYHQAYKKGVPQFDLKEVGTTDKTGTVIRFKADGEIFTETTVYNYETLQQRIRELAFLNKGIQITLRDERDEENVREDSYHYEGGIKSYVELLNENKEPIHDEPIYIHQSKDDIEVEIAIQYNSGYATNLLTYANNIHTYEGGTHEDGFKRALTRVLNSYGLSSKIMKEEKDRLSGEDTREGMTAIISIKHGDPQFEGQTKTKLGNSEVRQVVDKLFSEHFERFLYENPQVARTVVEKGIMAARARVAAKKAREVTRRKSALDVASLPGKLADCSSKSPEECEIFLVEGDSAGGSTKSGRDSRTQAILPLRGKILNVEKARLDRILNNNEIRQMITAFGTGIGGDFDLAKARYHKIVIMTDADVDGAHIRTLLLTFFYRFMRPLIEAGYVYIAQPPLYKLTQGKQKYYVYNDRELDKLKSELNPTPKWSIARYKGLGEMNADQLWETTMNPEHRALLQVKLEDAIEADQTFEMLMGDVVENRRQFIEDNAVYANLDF
Compounds of the invention were tested in an assay substantially similar to the assay described above for measuring the inhibition of S. aureus GyrB ATPase. Percent inhibition of S. aureus GyrB ATPase at a compound concentration of 1 μM (unless otherwise noted) is disclosed in the following table: […]

Each structure is given as a SMILES string.

The term inhibition denotes the drop in the measured response relative to a control, in per cent.

Turning to `CCO[C@H]1CN(c2nc(-c3cnc(NCCN4CCNC4=O)cn3)c(C(=O)O)s2)CC[C@H]1NC(=O)c1[nH]c(C)c(Cl)c1Cl` [Example 93], the inhibition at 1 µM came to 94%.

Take `CCO[C@H]1CN(c2nc(-c3cnc(NCCN(C)C)cn3)c(C(=O)O)s2)CC[C@H]1NC(=O)c1[nH]c(C)c(Cl)c1Cl` [Example 94]: the inhibition at 1 µM amounted to 104%.

Turning to `CCO[C@H]1CN(c2nc(-c3cnc(NCCN4CCN(C)CC4)cn3)c(C(=O)O)s2)CC[C@H]1NC(=O)c1[nH]c(C)c(Cl)c1Cl` [Example 95], the inhibition at 1 µM came out at 114%.

For the compound `CCO[C@H]1CN(c2nc(-c3cnc(N4CCN(CC(C)C)CC4)cn3)c(C(=O)O)s2)CC[C@H]1NC(=O)c1[nH]c(C)c(Cl)c1Cl` [Example 96], the inhibition at 1 µM came to 104%.

As for `CCO[C@H]1CN(c2nc(-c3cnc(N4CCN(CC5CCCN(C)C5)CC4)cn3)c(C(=O)O)s2)CC[C@H]1NC(=O)c1[nH]c(C)c(Cl)c1Cl` (stereo partly shown) [Example 97], the inhibition at 1 µM stood at 112%.

With `CCO[C@H]1CN(c2nc(-c3cnc(N4CCN(CC5CCCCC5)CC4)cn3)c(C(=O)O)s2)CC[C@H]1NC(=O)c1[nH]c(C)c(Cl)c1Cl` [Example 98], the inhibition at 1 µM was determined as 116%.

Take `CCO[C@H]1CN(c2nc(-c3cnc(N4CCN(C(CC)CC)CC4)cn3)c(C(=O)O)s2)CC[C@H]1NC(=O)c1[nH]c(C)c(Cl)c1Cl` [Example 99]: the inhibition at 1 µM is 106%.

Consider `CCO[C@H]1CN(c2nc(-c3cnc(N4CCN(CC)CC4)cn3)c(C(=O)O)s2)CC[C@H]1NC(=O)c1[nH]c(C)c(Cl)c1Cl` [Example 100], for which the inhibition at 1 µM stood at 102%.

On to `CCO[C@H]1CN(c2nc(-c3cnc(N4CCN(CCN(CC)CC)CC4)cn3)c(C(=O)O)s2)CC[C@H]1NC(=O)c1[nH]c(C)c(Cl)c1Cl` [Example 101], for which the inhibition at 1 µM is 117%.

For `CCO[C@H]1CN(c2nc(-c3cnc(N4CCN[C@H](C)C4)cn3)c(C(=O)O)s2)CC[C@H]1NC(=O)c1[nH]c(C)c(Cl)c1Cl` [Example 102], the inhibition at 1 µM turned out to be 112%.

`CCO[C@H]1CN(c2nc(-c3cnc(N4CCN(CCO)CC4)cn3)c(C(=O)O)s2)CC[C@H]1NC(=O)c1[nH]c(C)c(Cl)c1Cl` [Example 103]: the inhibition at 1 µM is 102%.

Regarding `CCO[C@H]1CN(c2nc(-c3cnc(N4CCN(CC5CCCO5)CC4)cn3)c(C(=O)O)s2)CC[C@H]1NC(=O)c1[nH]c(C)c(Cl)c1Cl` (stereo partly shown) [Example 104], the inhibition at 1 µM was 105%.

`CO[C@H]1CN(c2nc(-c3cnc(N4CCCCC4)cn3)c(C(=O)O)s2)CC[C@H]1NC(=O)c1[nH]c(C)c(Cl)c1Cl` [Example 124]: the inhibition at 1 µM worked out at 112%.

Regarding `CO[C@H]1CN(c2nc(-c3cnc(N4CCOCC4)cn3)c(C(=O)O)s2)CC[C@H]1NC(=O)c1[nH]c(C)c(Cl)c1Cl` [Example 125], the inhibition at 1 µM worked out at 111%.

As for `CO[C@H]1CN(c2nc(-c3cnc(N4CCNCC4)cn3)c(C(=O)O)s2)CC[C@H]1NC(=O)c1[nH]c(C)c(Cl)c1Cl` [Example 126], the inhibition at 1 µM is 108%.

As for `CO[C@H]1CN(c2nc(-c3cnc(NCCN4CCCC4=O)cn3)c(C(=O)O)s2)CC[C@H]1NC(=O)c1[nH]c(C)c(Cl)c1Cl` [Example 127], the inhibition at 1 µM was found to be 110%.

As for `COCCNc1cnc(-c2nc(N3CC[C@@H](NC(=O)c4[nH]c(C)c(Cl)c4Cl)[C@@H](OC)C3)sc2C(=O)O)cn1` [Example 128], the inhibition at 1 µM came out at 110%.

In the case of `COCC(COC)Nc1cnc(-c2nc(N3CC[C@@H](NC(=O)c4[nH]c(C)c(Cl)c4Cl)[C@@H](OC)C3)sc2C(=O)O)cn1` [Example 129], the inhibition at 1 µM is 103%.

Take `CO[C@H]1CN(c2nc(-c3cnc(NCCN4CCOCC4)cn3)c(C(=O)O)s2)CC[C@H]1NC(=O)c1[nH]c(C)c(Cl)c1Cl` [Example 130]: the inhibition at 1 µM was found to be 107%.

As for `CO[C@H]1CN(c2nc(-c3cnc(NCCN4CCNC4=O)cn3)c(C(=O)O)s2)CC[C@H]1NC(=O)c1[nH]c(C)c(Cl)c1Cl` [Example 131], the inhibition at 1 µM came out at 108%.

As to `CO[C@H]1CN(c2nc(-c3cnc(NCCN(C)C)cn3)c(C(=O)O)s2)CC[C@H]1NC(=O)c1[nH]c(C)c(Cl)c1Cl` [Example 132], the inhibition at 1 µM came to 103%.

As for `CO[C@H]1CN(c2nc(-c3cnc(NCCN4CCN(C)CC4)cn3)c(C(=O)O)s2)CC[C@H]1NC(=O)c1[nH]c(C)c(Cl)c1Cl` [Example 133], the inhibition at 1 µM turned out to be 112%.

As to `CO[C@H]1CN(c2nc(-c3cnc(N4CCN(CC(C)C)CC4)cn3)c(C(=O)O)s2)CC[C@H]1NC(=O)c1[nH]c(C)c(Cl)c1Cl` [Example 134], the inhibition at 1 µM turned out to be 104%.

For the compound `CO[C@H]1CN(c2nc(-c3cnc(N4CCN(CC5CCCN(C)C5)CC4)cn3)c(C(=O)O)s2)CC[C@H]1NC(=O)c1[nH]c(C)c(Cl)c1Cl` (stereo partly shown) [Example 135], the inhibition at 1 µM worked out at 98%.

Take `CO[C@H]1CN(c2nc(-c3cnc(N4CCN(CC5CCCCC5)CC4)cn3)c(C(=O)O)s2)CC[C@H]1NC(=O)c1[nH]c(C)c(Cl)c1Cl` [Example 136]: the inhibition at 1 µM was determined as 104%.

As for `CCC(CC)N1CCN(c2cnc(-c3nc(N4CC[C@@H](NC(=O)c5[nH]c(C)c(Cl)c5Cl)[C@@H](OC)C4)sc3C(=O)O)cn2)CC1` [Example 137], the inhibition at 1 µM stood at 101%.

Consider `CCN1CCN(c2cnc(-c3nc(N4CC[C@@H](NC(=O)c5[nH]c(C)c(Cl)c5Cl)[C@@H](OC)C4)sc3C(=O)O)cn2)CC1` [Example 138], for which the inhibition at 1 µM was 103%.

Regarding `CO[C@H]1CN(c2nc(-c3cnc(N4CCN[C@H](C)C4)cn3)c(C(=O)O)s2)CC[C@H]1NC(=O)c1[nH]c(C)c(Cl)c1Cl` [Example 140], the inhibition at 1 µM worked out at 107%.

For the compound `CO[C@H]1CN(c2nc(-c3cnc(N4CCN(CCO)CC4)cn3)c(C(=O)O)s2)CC[C@H]1NC(=O)c1[nH]c(C)c(Cl)c1Cl` [Example 141], the inhibition at 1 µM amounted to 103%.

With `CO[C@H]1CN(c2nc(-c3cnc(N4CCN(CC5CCCO5)CC4)cn3)c(C(=O)O)s2)CC[C@H]1NC(=O)c1[nH]c(C)c(Cl)c1Cl` (stereo partly shown) [Example 142], the inhibition at 1 µM was determined as 103%.

In the case of `CCN1CCN(c2cnc(-c3nc(N4CC[C@@H](NC(=O)c5[nH]c(C)c(Cl)c5Cl)[C@@H](C)C4)sc3C(=O)O)cn2)CC1` [Example 164, 2-[(3S,4R)-4-{[(3,4-dichloro-5-methyl-1H-pyrrol-2-yl)carbonyl]amino}-3-methylpiperidin-1-yl]-4-[5-(4-ethylpiperazin-1-yl)pyrazin-2-yl]-1,3-thiazole-5-carboxylic acid], the inhibition at 1 µM was determined as 117%.

For the compound `Cc1[nH]c(C(=O)N[C@@H]2CCN(c3nc(-c4cnc(N5CCCCC5)cn4)c(C(=O)O)s3)C[C@@H]2C)c(Cl)c1Cl` [Example 165, 2-[(3S,4R)-4-{[(3,4-dichloro-5-methyl-1H-pyrrol-2-yl)carbonyl]amino}-3-methylpiperidin-1-yl]-4-[5-(piperidin-1-yl)pyrazin-2-yl]-1,3-thiazole-5-carboxylic acid], the inhibition at 1 µM was found to be 107%.

As for `Cc1[nH]c(C(=O)N[C@@H]2CCN(c3nc(-c4cnc(N5CCOCC5)cn4)c(C(=O)O)s3)C[C@@H]2C)c(Cl)c1Cl` [Example 166, 2-[(3S,4R)-4-{[(3,4-dichloro-5-methyl-1H-pyrrol-2-yl)carbonyl]amino}-3-methylpiperidin-1-yl]-4-[5-(morpholin-4-yl)pyrazin-2-yl]-1,3-thiazole-5-carboxylic acid], the inhibition at 1 µM came to 110%.

For `Cc1[nH]c(C(=O)N[C@@H]2CCN(c3nc(-c4cnc(N5CCN(C)CC5)cn4)c(C(=O)O)s3)C[C@@H]2C)c(Cl)c1Cl` [Example 167, 2-[(3S,4R)-4-{[(3,4-dichloro-5-methyl-1H-pyrrol-2-yl)carbonyl]amino}-3-methylpiperidin-1-yl]-4-[5-(4-methylpiperazin-1-yl)pyrazin-2-yl]-1,3-thiazole-5-carboxylic acid], the inhibition at 1 µM is 113%.

The values are drawn from US8071605B2, “Piperidine compounds for use in the treatment of bacterial infections” (AstraZeneca AB, priority 2008, dated 2011).
